Reference: ChEMBL document CHEMBL1201862, “PubChem BioAssay data set” (2004)
Active and inactive are the calls of the source.

Tests used:
[1] = NIH-3T3 fibroblast cytotoxicity, dose response, cytotoxicity control, cell-based, fluorescence, Alamar Blue, secondary assay (AID 2327); assay type: functional;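 further: NIH-3T3 mouse fibroblasts cultured with fluconazole at 8 µg/mL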
[2] = target: NACHT, LRR and PYD domains-containing protein 3 (Homo sapiens, UniProt Q96P20); assay: NALP3 inhibitors in yeast, dose response, luminescent (AID 488799); assay type: functional
cells = assay type: functional
[3] = target: T1, Serine/threonine-protein phosphatase (Candida dubliniensis (strain CD36 / CBS 7987 / NCPF 3949 / NRRLY-17841) (Yeast), UniProt B9W6M3); assay: calcineurin pathway inhibitors in yeast reporter, dose response, S. cerevisiae, CDRE-lacZ, luminescence, secondary (AID 2388); assay type: functional, cell-based;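 further: yeast reporter cells carrying a calcineurin-responsive lacZ construct stimulated with calcium chloride; luminescent beta-galactosidase reporter signal in whole cells rather than isolated phosphatase activity; potency for inhibition where a drop in reporter signal means calcineurin blockade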
T1 sequence (B9W6M3 whole entry): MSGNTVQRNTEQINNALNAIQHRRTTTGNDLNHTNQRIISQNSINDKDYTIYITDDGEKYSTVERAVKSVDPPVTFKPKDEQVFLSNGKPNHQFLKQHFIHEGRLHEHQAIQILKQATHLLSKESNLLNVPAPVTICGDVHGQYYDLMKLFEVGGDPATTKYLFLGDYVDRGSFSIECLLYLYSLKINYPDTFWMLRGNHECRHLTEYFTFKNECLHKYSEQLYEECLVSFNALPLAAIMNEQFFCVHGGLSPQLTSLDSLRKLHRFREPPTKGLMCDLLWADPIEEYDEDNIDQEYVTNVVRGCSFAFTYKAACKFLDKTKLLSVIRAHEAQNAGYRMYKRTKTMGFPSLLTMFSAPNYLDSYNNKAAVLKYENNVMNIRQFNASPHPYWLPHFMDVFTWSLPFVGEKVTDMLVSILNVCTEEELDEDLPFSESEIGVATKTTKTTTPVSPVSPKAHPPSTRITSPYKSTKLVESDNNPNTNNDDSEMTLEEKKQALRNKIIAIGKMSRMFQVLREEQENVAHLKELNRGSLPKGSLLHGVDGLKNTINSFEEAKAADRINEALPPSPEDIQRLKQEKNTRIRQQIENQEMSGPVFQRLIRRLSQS

[4] = Vero E6 cell cytotoxicity, dose response, cytotoxicity control for non-replicating M. tuberculosis project, secondary assay (AID 492998); assay type: functional, VeroE6; conditions: Vero C1008
[5] = C. albicans growth with fluconazole, confirmation, fluorescence, retest (AID 2467); assay type: functional, cell-based
[6] = target: ATP-dependent molecular chaperone HSP82 (Candida albicans (strain WO-1) (Yeast), UniProt C4YTQ8); assay: loss of DOC-induced GRE-beta-galactosidase reporter signal, dose response, Hsp90 inhibitor project, S. cerevisiae, luminescence (AID 2400); assay type: functional, cell-based;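 further: beta-galactosidase luminescence from glucocorticoid response element reporter as proxy for Hsp90 function; inhibitor potency where signal loss means Hsp90 inhibition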
[7] = HepG2 cell cytotoxicity, dose response, cytotoxicity control for non-replicating M. tuberculosis project (AID 489018); assay type: functional; conditions: Mycobacterium tuberculosis
[8] = THP-1 cell cytotoxicity, dose response, cytotoxicity control for non-replicating M. tuberculosis project (AID 489025); assay type: functional
BJ [9] = assay: cells; assay type: functional, cell-based; conditions: Homo sapiens
[10] = cytotoxicity toward DRD oncogenic fibroblasts, dose response, cell-based, non-viral oncogenic, luminescence (AID 1934); assay type: functional; conditions: Homo sapiens
BJ [11] = assay: cytotoxicity toward BJ-TERT-LT-ST fibroblasts, dose response, cell-based, RAS-independent, luminescence (AID 1935); assay type: functional; conditions: Homo sapiens;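 further: BJ fibroblasts immortalized with TERT plus LT and ST oncogenes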
J774.A1 = assay: Confirmation of image-based Screening Assay for Inhibitors of Phagocytosis. [Related pubchem assays (depositor defined):AID1029, AID1643]; assay type: functional, cell-based; conditions: Mus musculus
[12] = cytotoxicity in HEK-293T cells, dose response, cytotoxicity control for TCR NF-kB inhibitor project, luminescence, T-cell screen hits (AID 489026); assay type: functional, cell-based;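 further: cells exposed to compound about 14 hours before the viability readout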
BJ [13] = assay: cytotoxicity toward BJ-TERT fibroblasts, dose response, cell-based, RAS-independent, luminescence (AID 1933); assay type: functional; conditions: Homo sapiens
[14] = target: T2, Polyadenylate-binding protein 1 (Homo sapiens, UniProt P11940); assay: PABP1 MLLE–PAM2 interaction inhibitors, dose response, miRNA deadenylation inhibitor project, biochemical, fluorescence polarization, Cy5-PAM2 peptide, secondary (AID 602260); assay type: functional; conditions: read-out: IC50_Mean
[15] = target: Potassium voltage-gated channel subfamily KQT member 2 (Rattus norvegicus, UniProt O88943); assay: retigabine-insensitive KCNQ2 potentiators, concentration-response, dose response, cell-based, retigabine-insensitive compounds (AID 2654); assay type: functional
[16] = target: T2, Polyadenylate-binding protein 1; assay: PABP1 MLLE–PAM2 binding inhibitor potency, dose response, biochemical, fluorescence polarization, FITC-PAM2 peptide (AID 602259); assay type: functional; conditions: read-out: IC50_Mean
[17] = target: T3, Dual specificity protein phosphatase 6 (Rattus norvegicus, UniProt Q64346)
T3 sequence (Q64346 whole entry): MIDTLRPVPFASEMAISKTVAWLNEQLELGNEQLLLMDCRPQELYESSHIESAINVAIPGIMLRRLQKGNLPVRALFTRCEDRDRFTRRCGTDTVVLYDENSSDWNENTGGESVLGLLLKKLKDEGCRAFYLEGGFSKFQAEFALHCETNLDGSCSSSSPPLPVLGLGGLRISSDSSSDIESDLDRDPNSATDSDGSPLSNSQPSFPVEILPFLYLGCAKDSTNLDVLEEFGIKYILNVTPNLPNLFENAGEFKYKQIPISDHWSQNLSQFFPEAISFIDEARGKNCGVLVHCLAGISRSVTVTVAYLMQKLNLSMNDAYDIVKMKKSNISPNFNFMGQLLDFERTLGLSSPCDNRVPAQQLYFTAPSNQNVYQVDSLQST

[18] = target: T4, Tyrosine-protein phosphatase non-receptor type 7 (Homo sapiens, UniProt P35236); assay: redox-dependent HePTP inhibition, mechanism study, biochemical, fluorescence (AID 2068); assay type: functional
T4 sequence (P35236 whole entry): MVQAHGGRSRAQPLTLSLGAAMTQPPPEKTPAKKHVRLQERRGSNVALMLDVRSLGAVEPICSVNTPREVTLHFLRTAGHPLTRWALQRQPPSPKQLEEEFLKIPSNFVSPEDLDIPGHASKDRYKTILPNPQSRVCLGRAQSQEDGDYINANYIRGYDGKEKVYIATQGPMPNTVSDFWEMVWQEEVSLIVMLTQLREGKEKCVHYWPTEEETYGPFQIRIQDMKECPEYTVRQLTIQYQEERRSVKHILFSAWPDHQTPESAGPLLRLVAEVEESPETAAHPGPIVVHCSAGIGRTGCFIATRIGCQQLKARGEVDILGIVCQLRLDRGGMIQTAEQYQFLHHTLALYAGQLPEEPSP

[19] = target: T3, Dual specificity protein phosphatase 6; assay type: functional
[20] = target: T4, Tyrosine-protein phosphatase non-receptor type 7; assay type: functional
[21] = target: T5, Dual specificity protein phosphatase 3 (Homo sapiens, UniProt P51452); assay: MOA VHR1 Fluorescent secondary assay for identification of redox-state modulating compounds. [Related pubchem assays (depositor defined):AID1654, AID1661, AID1878, AID1957]
[22] = target: Glyceraldehyde-3-phosphate dehydrogenase (Homo sapiens, UniProt P04406)
[23] = target: T5, Dual specificity protein phosphatase 3; assay: SAR VHR1 Fluorescent Assay for In Vitro dose response studies. [Related pubchem assays (depositor defined):AID1654, AID1661, AID1878, AID1992, AID2004, AID2070, AID2085]; assay type: functional
[24] = target: Voltage-dependent T-type calcium channel subunit alpha-1H (Homo sapiens, UniProt O95180); assay: Cav3.2 T-type channel inhibitors, cell-based, synthetic library set 1, calcium flux (AID 493022); assay type: functional
Beta-galactosidase = Beta-galactosidase (Escherichia coli, UniProt Q8VNN2); assay: beta-galactosidase enzyme inhibitors and activators, dose response, artefact control for CCR6 antagonist project, biochemical, E. coli enzyme, set 3 (AID 504712); assay type: functional
Genome polyprotein = Genome polyprotein (dengue virus type 2, UniProt P29990); assay: Dengue-2 NS5 methyltransferase inhibitors, primary screen, biochemical, confirmation dose response (AID 588689); assay type: functional
[25] = target: T6, Hepatocyte nuclear factor 4-alpha (Homo sapiens, UniProt P41235); assay type: functional, cell-based;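 further: biochemical luminescence-based dose-response counterscreen measuring inhibition of HNF4 dimerization, run alongside a screen for blockers of ABHD5–perilipin-5 interaction; split luciferase complementation of HNF4 fusion proteins in cell lysate measuring dimerization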
T6 sequence (P41235 whole entry): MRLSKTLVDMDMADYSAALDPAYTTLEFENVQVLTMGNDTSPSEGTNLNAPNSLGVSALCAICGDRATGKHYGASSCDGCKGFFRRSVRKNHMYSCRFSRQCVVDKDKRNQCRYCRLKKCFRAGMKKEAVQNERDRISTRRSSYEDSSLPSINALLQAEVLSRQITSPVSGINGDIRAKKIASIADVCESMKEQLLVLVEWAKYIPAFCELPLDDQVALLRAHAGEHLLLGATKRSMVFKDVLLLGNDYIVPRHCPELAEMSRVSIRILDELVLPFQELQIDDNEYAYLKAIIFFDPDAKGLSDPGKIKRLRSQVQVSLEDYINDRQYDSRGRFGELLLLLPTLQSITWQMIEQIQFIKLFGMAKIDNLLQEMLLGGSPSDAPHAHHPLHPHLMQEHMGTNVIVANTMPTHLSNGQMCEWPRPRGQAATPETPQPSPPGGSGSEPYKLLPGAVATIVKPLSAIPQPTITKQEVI

[26] = target: Glucose-6-phosphate 1-dehydrogenase (Homo sapiens, UniProt P11413); assay: human G6PD enzyme inhibitors, dose response, selectivity assay for P. falciparum G6PD inhibitor project, biochemical, fluorescence (AID 504792); assay type: functional
Hexokinase HKDC1 = target: T7, Hexokinase HKDC1 (Homo sapiens, UniProt Q2TB90); assay: HKDC1 hexokinase inhibitors, dose response, biochemical, W721R variant (AID 504729); assay type: functional
T7 sequence (Q2TB90 whole entry): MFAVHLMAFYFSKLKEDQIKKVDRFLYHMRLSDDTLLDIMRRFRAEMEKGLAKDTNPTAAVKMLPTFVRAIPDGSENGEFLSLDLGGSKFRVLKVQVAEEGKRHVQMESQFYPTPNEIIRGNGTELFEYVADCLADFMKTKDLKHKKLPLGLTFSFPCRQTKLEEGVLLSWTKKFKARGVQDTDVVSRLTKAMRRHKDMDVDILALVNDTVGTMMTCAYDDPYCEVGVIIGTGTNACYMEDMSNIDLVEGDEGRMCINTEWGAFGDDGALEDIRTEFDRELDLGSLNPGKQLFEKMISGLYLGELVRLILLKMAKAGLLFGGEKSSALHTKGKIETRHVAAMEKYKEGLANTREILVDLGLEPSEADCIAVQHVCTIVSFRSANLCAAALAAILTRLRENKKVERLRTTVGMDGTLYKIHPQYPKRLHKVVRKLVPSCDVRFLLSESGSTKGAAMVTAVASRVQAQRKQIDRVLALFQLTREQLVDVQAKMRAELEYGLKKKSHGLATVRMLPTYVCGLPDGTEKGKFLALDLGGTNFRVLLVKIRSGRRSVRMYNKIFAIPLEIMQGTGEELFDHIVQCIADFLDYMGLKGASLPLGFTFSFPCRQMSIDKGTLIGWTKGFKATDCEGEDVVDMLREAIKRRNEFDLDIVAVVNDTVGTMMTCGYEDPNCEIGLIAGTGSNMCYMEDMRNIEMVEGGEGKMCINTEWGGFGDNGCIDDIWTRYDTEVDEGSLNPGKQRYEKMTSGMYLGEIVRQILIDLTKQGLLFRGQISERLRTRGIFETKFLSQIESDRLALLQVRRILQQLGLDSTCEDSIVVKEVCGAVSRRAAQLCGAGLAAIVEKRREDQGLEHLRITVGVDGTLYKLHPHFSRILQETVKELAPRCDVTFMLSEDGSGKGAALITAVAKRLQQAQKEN

[27] = target: G-protein coupled receptor 35 (Homo sapiens, UniProt Q9HC97); assay: SAR analysis of Antagonists of the GPR35 Receptor using an Image-Based Assay - Set 5. [Related pubchem assays (depositor defined):AID2058, AID2079]; assay type: functional
[28] = target: G-protein coupled receptor 55 (Homo sapiens, UniProt Q9Y2T6); assay: SAR Analysis of Selective Antagonists of GPR55 using an Image-Based Assay - Set 3. [Related pubchem assays (depositor defined):AID2058, AID2079]; assay type: functional
[29] = target: Sphingosine 1-phosphate receptor 4 (Homo sapiens, UniProt O95977); assay: S1P4 receptor agonists, human, late-stage follow-up, cell-based, fluorescence, synthesized compounds (AID 463107); assay type: functional
[30] = target: Phosphoethanolamine/phosphocholine phosphatase (Homo sapiens, UniProt Q8TCT1); assay: SAR assay for compounds that inhibit PHOSPHO1. [Related pubchem assays (depositor defined):AID1545, AID1565, AID1574]
Cytochrome P450 2D6 = Cytochrome P450 2D6 (Homo sapiens, UniProt P10635);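 further: CYP2D6 member of a cytochrome P450 panel assay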
Chain of Cytochrome P450 2D6 (P10635 whole entry): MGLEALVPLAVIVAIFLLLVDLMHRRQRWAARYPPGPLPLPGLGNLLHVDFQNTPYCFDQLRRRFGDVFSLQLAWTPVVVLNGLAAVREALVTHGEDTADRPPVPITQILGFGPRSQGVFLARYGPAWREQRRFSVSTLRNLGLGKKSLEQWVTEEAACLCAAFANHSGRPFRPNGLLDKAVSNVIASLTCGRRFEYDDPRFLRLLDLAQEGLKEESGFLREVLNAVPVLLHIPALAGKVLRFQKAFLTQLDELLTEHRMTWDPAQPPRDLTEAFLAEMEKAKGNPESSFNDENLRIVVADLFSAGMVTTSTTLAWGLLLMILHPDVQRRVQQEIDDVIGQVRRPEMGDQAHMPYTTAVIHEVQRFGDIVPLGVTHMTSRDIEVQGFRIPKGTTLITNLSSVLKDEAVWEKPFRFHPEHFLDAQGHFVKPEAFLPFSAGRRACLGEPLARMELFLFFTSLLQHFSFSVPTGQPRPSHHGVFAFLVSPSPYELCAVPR

T2 sequence (P11940 whole entry): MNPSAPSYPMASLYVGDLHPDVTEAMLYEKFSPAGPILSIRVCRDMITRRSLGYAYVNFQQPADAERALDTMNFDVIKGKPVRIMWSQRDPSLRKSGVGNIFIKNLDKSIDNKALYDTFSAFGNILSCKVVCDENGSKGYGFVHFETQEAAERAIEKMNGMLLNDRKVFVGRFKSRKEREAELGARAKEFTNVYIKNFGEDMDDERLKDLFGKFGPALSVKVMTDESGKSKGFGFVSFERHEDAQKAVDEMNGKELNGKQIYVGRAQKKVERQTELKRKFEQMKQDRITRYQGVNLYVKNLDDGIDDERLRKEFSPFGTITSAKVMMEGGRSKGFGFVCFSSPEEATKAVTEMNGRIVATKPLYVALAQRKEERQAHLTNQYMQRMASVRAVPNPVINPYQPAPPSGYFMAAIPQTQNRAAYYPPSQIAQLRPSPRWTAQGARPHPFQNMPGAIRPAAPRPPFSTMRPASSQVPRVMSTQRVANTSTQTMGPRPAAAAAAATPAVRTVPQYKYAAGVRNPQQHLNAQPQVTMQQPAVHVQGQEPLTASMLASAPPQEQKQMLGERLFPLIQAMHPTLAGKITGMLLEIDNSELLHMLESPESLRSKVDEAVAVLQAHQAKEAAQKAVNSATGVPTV
T5 sequence (P51452 whole entry): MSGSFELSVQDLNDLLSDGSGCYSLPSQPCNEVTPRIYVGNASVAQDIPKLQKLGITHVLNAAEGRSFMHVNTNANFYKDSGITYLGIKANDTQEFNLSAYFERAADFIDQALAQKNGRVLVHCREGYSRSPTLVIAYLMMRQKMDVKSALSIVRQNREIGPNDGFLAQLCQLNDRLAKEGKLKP
Chain of Beta-galactosidase (Q8VNN2 whole entry): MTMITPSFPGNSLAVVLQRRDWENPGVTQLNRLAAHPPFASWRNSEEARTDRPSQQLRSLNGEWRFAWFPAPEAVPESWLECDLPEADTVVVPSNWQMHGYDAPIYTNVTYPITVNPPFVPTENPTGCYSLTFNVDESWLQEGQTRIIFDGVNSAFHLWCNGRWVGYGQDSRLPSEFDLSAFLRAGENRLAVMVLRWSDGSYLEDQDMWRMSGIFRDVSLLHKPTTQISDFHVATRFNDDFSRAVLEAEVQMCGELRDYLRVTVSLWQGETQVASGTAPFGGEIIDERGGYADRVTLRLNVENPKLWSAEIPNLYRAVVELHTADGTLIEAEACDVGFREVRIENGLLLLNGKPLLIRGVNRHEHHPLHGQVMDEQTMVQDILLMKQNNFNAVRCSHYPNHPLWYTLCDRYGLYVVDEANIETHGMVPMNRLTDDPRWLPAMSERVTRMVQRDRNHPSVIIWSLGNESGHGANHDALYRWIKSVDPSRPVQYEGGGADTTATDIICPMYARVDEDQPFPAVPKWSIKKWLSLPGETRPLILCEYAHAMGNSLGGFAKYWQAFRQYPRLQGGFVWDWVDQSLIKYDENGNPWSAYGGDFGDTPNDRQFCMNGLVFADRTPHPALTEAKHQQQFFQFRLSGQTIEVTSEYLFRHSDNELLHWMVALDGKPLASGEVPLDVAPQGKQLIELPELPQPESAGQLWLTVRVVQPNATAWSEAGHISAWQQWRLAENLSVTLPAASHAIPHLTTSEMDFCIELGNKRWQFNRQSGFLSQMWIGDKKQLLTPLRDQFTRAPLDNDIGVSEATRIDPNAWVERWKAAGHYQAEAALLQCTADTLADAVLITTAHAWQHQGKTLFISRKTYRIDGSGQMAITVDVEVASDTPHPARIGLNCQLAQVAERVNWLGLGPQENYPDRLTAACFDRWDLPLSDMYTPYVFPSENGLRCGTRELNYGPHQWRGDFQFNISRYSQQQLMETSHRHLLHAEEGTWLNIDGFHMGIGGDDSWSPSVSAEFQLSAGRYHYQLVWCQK
Chain of Glyceraldehyde-3-phosphate dehydrogenase (P04406 whole entry): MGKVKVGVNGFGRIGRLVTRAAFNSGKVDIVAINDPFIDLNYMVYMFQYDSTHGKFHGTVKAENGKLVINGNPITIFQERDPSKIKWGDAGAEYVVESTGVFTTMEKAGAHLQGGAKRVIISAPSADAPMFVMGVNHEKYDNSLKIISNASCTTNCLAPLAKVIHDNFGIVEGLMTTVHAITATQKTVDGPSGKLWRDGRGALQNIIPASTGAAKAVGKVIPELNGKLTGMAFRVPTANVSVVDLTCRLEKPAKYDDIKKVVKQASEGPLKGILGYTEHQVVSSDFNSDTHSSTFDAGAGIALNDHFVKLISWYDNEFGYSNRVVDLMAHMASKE
Chain of Phosphoethanolamine/phosphocholine phosphatase (Q8TCT1 whole entry): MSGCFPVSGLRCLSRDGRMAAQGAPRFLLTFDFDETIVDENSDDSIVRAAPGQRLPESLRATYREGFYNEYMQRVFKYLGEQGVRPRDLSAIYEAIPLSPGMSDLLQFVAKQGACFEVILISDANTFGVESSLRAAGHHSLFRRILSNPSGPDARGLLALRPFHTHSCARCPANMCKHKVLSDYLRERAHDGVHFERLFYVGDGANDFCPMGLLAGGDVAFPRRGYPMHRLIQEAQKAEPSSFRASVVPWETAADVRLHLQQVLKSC
Chain of Genome polyprotein (P29990 2492-3391 limits assumed): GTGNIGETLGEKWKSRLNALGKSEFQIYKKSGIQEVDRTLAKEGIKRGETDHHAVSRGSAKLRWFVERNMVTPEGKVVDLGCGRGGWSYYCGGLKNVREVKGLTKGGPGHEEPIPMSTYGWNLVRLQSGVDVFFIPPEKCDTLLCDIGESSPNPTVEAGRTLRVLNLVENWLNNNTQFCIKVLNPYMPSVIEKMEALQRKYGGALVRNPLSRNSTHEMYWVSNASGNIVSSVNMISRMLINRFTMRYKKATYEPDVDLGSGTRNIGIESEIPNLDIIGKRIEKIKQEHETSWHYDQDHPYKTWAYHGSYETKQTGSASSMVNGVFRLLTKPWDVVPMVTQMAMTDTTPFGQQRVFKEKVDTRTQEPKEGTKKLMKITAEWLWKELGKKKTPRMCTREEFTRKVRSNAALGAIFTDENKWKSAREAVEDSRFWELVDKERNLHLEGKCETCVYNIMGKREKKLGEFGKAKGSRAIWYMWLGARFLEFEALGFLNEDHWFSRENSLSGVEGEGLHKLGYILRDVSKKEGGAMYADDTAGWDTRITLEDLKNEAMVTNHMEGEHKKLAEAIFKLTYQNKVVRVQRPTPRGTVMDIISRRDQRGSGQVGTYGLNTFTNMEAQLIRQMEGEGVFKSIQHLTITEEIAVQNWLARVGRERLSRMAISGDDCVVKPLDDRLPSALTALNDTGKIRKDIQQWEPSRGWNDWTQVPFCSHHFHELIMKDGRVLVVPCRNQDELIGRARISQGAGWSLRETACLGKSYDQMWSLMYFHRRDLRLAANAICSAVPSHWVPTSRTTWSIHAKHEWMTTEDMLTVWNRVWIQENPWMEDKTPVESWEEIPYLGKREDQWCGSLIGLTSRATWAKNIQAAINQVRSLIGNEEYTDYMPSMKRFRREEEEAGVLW
Chain of ATP-dependent molecular chaperone HSP82 (C4YTQ8 whole entry): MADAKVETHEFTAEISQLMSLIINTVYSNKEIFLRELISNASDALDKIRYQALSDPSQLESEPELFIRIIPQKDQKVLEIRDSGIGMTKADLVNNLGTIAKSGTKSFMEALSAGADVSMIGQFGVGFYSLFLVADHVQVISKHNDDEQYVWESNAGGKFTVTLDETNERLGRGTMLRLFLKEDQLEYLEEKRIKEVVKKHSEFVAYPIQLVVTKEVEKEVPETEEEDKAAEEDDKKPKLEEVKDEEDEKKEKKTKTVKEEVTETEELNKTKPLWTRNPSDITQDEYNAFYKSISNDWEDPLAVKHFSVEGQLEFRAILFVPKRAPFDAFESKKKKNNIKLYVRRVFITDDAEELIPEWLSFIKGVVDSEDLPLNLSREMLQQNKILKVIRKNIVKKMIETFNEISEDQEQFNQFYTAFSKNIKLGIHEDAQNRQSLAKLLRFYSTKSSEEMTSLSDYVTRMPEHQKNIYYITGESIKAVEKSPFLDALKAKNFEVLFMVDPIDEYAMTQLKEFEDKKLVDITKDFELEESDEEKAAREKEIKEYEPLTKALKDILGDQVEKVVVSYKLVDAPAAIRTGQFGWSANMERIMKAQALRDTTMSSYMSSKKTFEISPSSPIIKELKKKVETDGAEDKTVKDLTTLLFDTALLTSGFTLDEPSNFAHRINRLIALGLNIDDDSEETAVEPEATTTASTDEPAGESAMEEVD
Chain of G-protein coupled receptor 35 (Q9HC97 whole entry): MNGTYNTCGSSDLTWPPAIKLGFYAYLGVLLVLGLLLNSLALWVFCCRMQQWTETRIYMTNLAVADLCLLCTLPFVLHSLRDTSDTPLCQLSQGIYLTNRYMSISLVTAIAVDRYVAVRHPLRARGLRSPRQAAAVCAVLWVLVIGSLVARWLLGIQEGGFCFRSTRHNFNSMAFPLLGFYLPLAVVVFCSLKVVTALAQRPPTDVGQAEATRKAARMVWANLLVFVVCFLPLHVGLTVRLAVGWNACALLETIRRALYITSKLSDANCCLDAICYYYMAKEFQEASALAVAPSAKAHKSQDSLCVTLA

O=c1c2cc(Br)ccc2nc(-c2ccc([N+](=O)[O-])cc2)n1O
EC50 [1]: > 150 µM (inactive)
IC50 [2]: 4.91 µM (active)
IC50 (cells): 11.9 µM (active)
EC50 [3]: 3.07 µM (active)
CC50 [4]: 18.4 µM (active)
EC50 [5]: 0.585 µM (active)
EC50 [6]: 2.56 µM (active)
CC50 [7]: 19.9 µM (active)
CC50 [8]: 20.3 µM (active)

CCOc1ccccc1C1CC(=O)Nc2cc3c(cc21)OCCO3 (stereo unspecified)
EC50 (BJ [9]): 22.3 µM (active)
EC50 [10]: 0.829 µM (active)
EC50 (BJ [11]): 0.814 µM (inconclusive)
IC50 (J774.A1): > 25 µM (inactive)
IC50 [12]: > 80 µM (inactive)
EC50 (BJ [13]): 1.23 µM (active)

Fc1cccc(NC(=S)Nc2cccnc2)c1
IC50 [14]: > 66 µM (inactive)
EC50 [15]: 41.9 µM (active)
IC50 [16]: > 66 µM (inactive)

O=c1/c(=C/c2cccc(Br)c2)sc2nc3cc(Br)cnc3n12
IC50 [17]: > 100 µM (inactive)
IC50 [18]: 98.3 µM (active)
IC50 [19]: > 100 µM (inactive)
IC50 [20]: > 100 µM (not active)
IC50 [21]: > 100 µM (inactive)
IC50 [22]: > 100 µM (not active)
IC50 [23]: > 100 µM (inactive)

Cc1ccc(-c2nnc(NC(=O)COc3ccccc3Cl)o2)cc1C
EC50 [24]: 1.3 µM (active)

CN(C)c1ccc(Cc2cc3c(O)ccc(O)c3cc(Cc3ccc(N(C)C)cc3)c2=O)cc1
IC50 (Beta-galactosidase): > 66.6 µM (inactive)
IC50 (Genome polyprotein): 44.1 µM (active)
IC50 [25]: 4.6 µM (active)
IC50 [26]: 56.7 µM (inactive)
IC50 (Hexokinase HKDC1): 10.9 µM (active)

COC(=O)c1cnn(-c2ccc(Cl)cc2)c1/C=N/NC(N)=S
IC50 [27]: 4.6 µM (active)
IC50 [28]: > 32 µM (inactive)

Cc1ccc(OCCCOc2ccc(Cl)cc2Cl)c([N+](=O)[O-])n1
EC50 [29]: > 50 µM (inactive)

Cc1c(OCC(F)(F)F)ccnc1C[S+]([O-])c1nc2ccccc2[nH]1 (stereo unspecified) [LANSOPRAZOLE]
IC50 [30]: 0.434 µM (active)
AC50 (Cytochrome P450 2D6): 12.6 µM (inconclusive)
